According to paper PMC4002258 (Biochimica et biophysica acta, 2013):
pEC50: −log10 of the molar value. “And” between values parts separate entries of the source, which are not always exact repeats. Equal entries are not always repeated.

Assays:
Assay type in all cases: biochemical
[1] = target: human recombinant core 1 β1,3-Gal-transferase (C1GalT) (Homo sapiens, UniProt Q9NS00); experiment: C1GalT glycosyltransferase assay; conditions: for C1GalT activity (%): acceptor substrate 0.5 mM, 0.5 mM GalNAcα-Bn set to 100%
Chain of human recombinant core 1 β1,3-Gal-transferase (C1GalT) (Q9NS00 30-363 limits assumed): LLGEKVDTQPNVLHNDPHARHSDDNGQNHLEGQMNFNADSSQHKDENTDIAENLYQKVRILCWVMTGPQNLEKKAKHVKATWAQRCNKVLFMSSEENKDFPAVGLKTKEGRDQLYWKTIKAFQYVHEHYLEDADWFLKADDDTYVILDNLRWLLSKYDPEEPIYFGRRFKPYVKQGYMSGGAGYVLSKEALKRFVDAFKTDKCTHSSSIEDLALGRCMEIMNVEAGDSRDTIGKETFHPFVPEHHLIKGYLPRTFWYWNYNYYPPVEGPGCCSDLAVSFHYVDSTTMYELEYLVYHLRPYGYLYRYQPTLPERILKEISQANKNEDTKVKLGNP

[2] = target: T1, human recombinant core 3 β1,3-GlcNAc-transferase (C3GnT) (Homo sapiens, UniProt Q6ZMB0); experiment: C3GnT glycosyltransferase assay; conditions: for C3GnT activity (%): acceptor substrate 0.5 mM, 0.5 mM GalNAcα-Bn set to 100%
T1 sequence (Q6ZMB0 32-384 limits assumed): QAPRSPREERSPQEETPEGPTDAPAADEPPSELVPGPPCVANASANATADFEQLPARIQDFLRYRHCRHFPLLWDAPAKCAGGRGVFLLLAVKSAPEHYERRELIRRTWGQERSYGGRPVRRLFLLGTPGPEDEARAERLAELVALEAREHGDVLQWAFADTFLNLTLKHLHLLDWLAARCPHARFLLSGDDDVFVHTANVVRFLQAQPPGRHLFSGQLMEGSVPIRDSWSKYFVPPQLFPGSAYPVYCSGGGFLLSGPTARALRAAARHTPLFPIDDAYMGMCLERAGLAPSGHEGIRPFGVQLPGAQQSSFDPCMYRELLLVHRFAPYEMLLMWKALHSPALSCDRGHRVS

[3] = target: T2, human recombinant core 2 β1,6-GlcNAc-transferase (C2GnT1) (Homo sapiens, UniProt Q02742); experiment: C2GnT1 glycosyltransferase assay; conditions: for C2GnT1 activity (%): acceptor substrate 0.5 mM, 0.5 mM Galβ1–3GalNAcα-pnp set to 100%
T2 sequence (Q02742 33-428 limits assumed): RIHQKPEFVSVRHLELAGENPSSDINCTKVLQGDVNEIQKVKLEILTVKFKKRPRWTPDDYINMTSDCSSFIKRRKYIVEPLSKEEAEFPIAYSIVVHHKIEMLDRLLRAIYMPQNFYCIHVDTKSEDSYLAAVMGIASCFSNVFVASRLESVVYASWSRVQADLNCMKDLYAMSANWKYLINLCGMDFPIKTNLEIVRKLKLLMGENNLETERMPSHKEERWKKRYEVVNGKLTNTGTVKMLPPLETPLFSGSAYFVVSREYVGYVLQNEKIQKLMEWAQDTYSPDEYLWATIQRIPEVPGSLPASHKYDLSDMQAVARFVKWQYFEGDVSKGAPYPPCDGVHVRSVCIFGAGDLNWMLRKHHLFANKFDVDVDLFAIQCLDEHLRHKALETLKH

[4] = target: T3, human recombinant core 2/4 β1,6-GlcNAc-transferase (C2GnT2) (Homo sapiens, UniProt O95395); conditions: for C2GnT2 activity (%): acceptor substrate 0.5 mM, 0.5 mM Galβ1–3GalNAcα-pnp set to 100%
T3 sequence (O95395 27-438): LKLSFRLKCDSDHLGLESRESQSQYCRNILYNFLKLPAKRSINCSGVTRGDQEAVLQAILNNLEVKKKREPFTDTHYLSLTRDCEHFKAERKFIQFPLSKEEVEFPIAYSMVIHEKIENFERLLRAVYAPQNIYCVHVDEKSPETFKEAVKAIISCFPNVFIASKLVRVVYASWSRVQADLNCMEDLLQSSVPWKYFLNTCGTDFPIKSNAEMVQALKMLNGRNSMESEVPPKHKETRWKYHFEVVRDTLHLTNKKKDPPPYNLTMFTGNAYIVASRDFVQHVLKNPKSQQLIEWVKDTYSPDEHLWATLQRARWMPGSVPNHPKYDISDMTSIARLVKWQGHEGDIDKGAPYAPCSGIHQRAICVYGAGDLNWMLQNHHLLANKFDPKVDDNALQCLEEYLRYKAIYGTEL

| Compound | C1GalT activity (%) [1] [%] | C3GnT activity (%) [2] [%] | C2GnT1 activity (%) [3] [%] | C2GnT2 activity (%) [4] [%] | other results |
| --- | --- | --- | --- | --- | --- |
| OC[C@H]1O[C@H](OCc2ccccc2)C[C@@H](O)[C@H]1O [2-Deoxy-Galα-Bn] | <1 | <1 | – | – | – |
| CCC(=O)N[C@H]1[C@@H](OCc2ccccc2)O[C@H](CO)[C@H](O)[C@@H]1O [2-N-Propionyl-GalNα-Bn] | 60 | 62 | – | – | – |
| CCO[C@H]1[C@@H](O)[C@@H](CO)O[C@H](OCc2ccccc2)[C@@H]1NC(C)=O [3-O-Ethyl-GalNAcα-Bn] | <1 | <1 | – | – | – |
| CCCO[C@H]1[C@@H](O)[C@@H](CO)O[C@H](OCc2ccccc2)[C@@H]1NC(C)=O [3-O-Propyl-GalNAcα-Bn] | <1 | <1 | – | – | – |
| CC(=O)N[C@H]1[C@@H](OCc2ccccc2)O[C@H](CO)C[C@@H]1O [4-Deoxy-GalNAcα-Bn] | <1 | <1 | – | – | – |
| CC(=O)N[C@H]1[C@@H](OCc2ccccc2)O[C@H](CO[C@@H]2O[C@H](CO)[C@@H](F)[C@H](O)[C@H]2NC(C)=O)[C@H](O)[C@@H]1O [4-F-4-Deoxy-GlcNAcβ1–6-GalNAcα-Bn] | 88 | <1 | – | – | – |
| CC(=O)N[C@H]1[C@@H](OCc2ccccc2)O[C@H](C)[C@H](O)[C@@H]1O [6-Deoxy-GalNAcα-Bn] | 68 | <1 | – | – | – |
| CC(=O)N[C@H]1[C@@H](OCc2ccccc2)O[C@H](COCCCC2CO2)[C@H](O)[C@@H]1O (some centres unmarked) [6-O-(4,5-Anhydro)pentyl-GalNAcα-Bn] | 191 | <1 | – | – | – |
| CC(=O)N[C@H]1C(O)O[C@H](CO)[C@H](O)[C@@H]1O (some centres unmarked) [GalNAc, reference compound] | 6 | <1 | – | – | – |
| CC(=O)NC1C(OP(=O)(O)OP(=O)(O)OCCCCCCCCCCCOc2ccccc2)OC(CO)C(O)C1O (centres unmarked) [GalNAcα-O-PO3-PO3-(CH2)11-O-Ph] | <1 | <1 | – | – | – |
| C=C(C)C1CC=C(CO[C@H]2O[C@H](CO)[C@H](O)[C@H](O)[C@H]2NC(C)=O)CC1 (some centres unmarked) [GalNAcα-perillyl] | 102 | 153 | – | – | Vmax ([2]; C3GnT, acceptor substrate): 0.4 µmol/h/mg and 0.40 µmol/h/mg; Km ([2]; C3GnT, apparent KM for acceptor substrate): 300 µM |
| CC(=O)N[C@H]1[C@@H](Oc2ccccc2)O[C@H](CO)[C@H](O)[C@@H]1O [GalNAcα-phenyl] | 181 | 37 | – | – | – |
| CC(=O)N[C@H]1[C@@H](Oc2ccc([N+](=O)[O-])cc2)O[C@H](CO)[C@H](O)[C@@H]1O [GalNAcα-pnp] | 204 | 88 | – | – | – |
| CC(=O)N[C@H]1[C@H](OCc2ccccc2)O[C@H](CO)[C@@H](O[C@@H]2O[C@H](CO)[C@H](O)[C@H](O)[C@H]2NC(C)=O)[C@@H]1O [GalNAcβ1–4GlcNAcβ-Bn] | <1 | <1 | – | – | – |
| CC(=O)N[C@H]1[C@H](OC[C@H]2O[C@H](Oc3ccccc3[N+](=O)[O-])[C@H](NC(C)=O)[C@@H](O)[C@H]2O)O[C@H](CO)[C@@H](O[C@@H]2O[C@H](CO)[C@H](O)[C@H](O)[C@H]2O)[C@@H]1O [Galβ1–4GlcNAcβ1–6GalNAcα-onp] | 38 | <1 | – | – | – |
| CC(=O)N[C@H]1[C@H](OC[C@H]2O[C@H](Oc3ccc4ccccc4c3)[C@H](O)[C@@H](O)[C@H]2O)O[C@H](CO)[C@@H](O[C@@H]2O[C@H](CO)[C@H](O)[C@H](O)[C@H]2O)[C@@H]1O [Galβ1–4GlcNAcβ1–6Galα-(2-naphthyl)] | <1 | <1 | – | – | – |
| CC(=O)N[C@H]1[C@@H](OCc2ccccc2)O[C@H](CO[C@@H]2O[C@H](CO)[C@@H](O[C@@H]3O[C@H](CO)[C@H](O)[C@H](O)[C@H]3O)[C@H](O)[C@H]2O)[C@H](O)[C@@H]1O [Galβ1–4Glcβ1–6GalNAcα-Bn] | 63 | <1 | – | – | – |
| CC(=O)N[C@H]1[C@@H](OCc2ccccc2)O[C@H](CO[C@@H]2O[C@H](CO)[C@H](O)[C@H](O)[C@H]2O)[C@H](O)[C@@H]1O [Galβ1–6GalNAcα-Bn] | 30 | <1 | – | – | – |
| [2H]C([2H])([2H])O[C@@H]1O[C@H](CO[C@@H]2O[C@H](CO)[C@@H](O)[C@H](O)[C@H]2NC(C)=O)[C@H](O)[C@H](O)[C@H]1O [GlcNAcβ1–6-Galβ-OCD3] | <1 | <1 | – | – | – |
| [Cl][Mn][Cl] [Mn^2+, MnCl2] | – | – | – | – | C1GalT activity with cofactor/additive ([1]; 12.5 mM metal ion or EDTA, Mn2+ taken as 100%): 100%; pEC50 ([1]; read-out: MnCl2 concentration for half-maximal C1GalT activity): 3.60; reduction of C2GnT1 activity ([3]; 12.5 mM in the assay): 61%; reduction of C2GnT2 activity ([4]; 12.5 mM in the assay, core 1 or core 3 substrates): 83–85% |
| A-(GalNAcα)T | – | 15 | – | – | – |

| Compound | C1GalT activity (%) [1] [%] | C3GnT activity (%) [2] [%] | C2GnT1 activity (%) [3] [%] | C2GnT2 activity (%) [4] [%] | other results |
| --- | --- | --- | --- | --- | --- |
| Ac-GHA-(GalNAcα)TSLPVTG-NH2 | 564 | 22 | – | – | – |
| Ac-P-(Galβ1–3GalNAcα)TTTGIST-NH2 | – | – | 7 | <1 | – |
| Ac-P-(Galβ1–3GalNAcβ)TTTPIST-NH2 | – | – | 72 | 32 | – |
| Ac-PT-(Galβ1–3GalNAcα)TTGIST-NH2 | – | – | 49 | 6 | – |
| Ac-PT-(Galβ1–3GalNAcβ)TTPIST-NH2 | – | – | 43 | 15 | – |
| Ac-PTT-(Galβ1–3GalNAcα)TGIST-NH2 | – | – | 36 | <1 | – |
| Ac-V-(GalNAcα)TP-NH2 | 71 | 36 | – | – | – |
| T-(GalNAcα)TTVTPTPTG | 231 | – | – | – | – |
| T-(Galβ1–3GalNAcα)TTVTPTPTG | – | – | 11 | <1 | – |
| T-(GlcNAcβ1–3GalNAcα)TTVTPTPTG | – | – | <1 | <1 | – |
| TE-(GalNAcα)TTSHSTPG | 373 | – | – | – | – |
| TE-(GlcNAcβ1–3GalNAcα)TTSHSTPG | – | – | <1 | <1 | – |
| TE-(GlcNAcβ1–6GalNAcα)TTSHSTPG | <1 | – | <1 | <1 | – |
| TET-(GalNAcα)TSHSTPG | 210 | – | – | – | – |
| TET-(Galβ1–3GalNAcα)TSHSTPG | – | – | 27 | <1 | – |
| TET-(GlcNAcβ1–3GalNAcα)TSHSTPG | – | – | <1 | <1 | – |
| TETTSHS-(Galβ1–3GalNAcα)TPG | – | – | 70 | 7 | – |
| TETTSHS-(GlcNAcβ1–3GalNAcα)TPG | – | – | <1 | <1 | – |
| TT-(Galβ1–3GalNAcα)TVTP-(Galβ1–3GalNAcα)TPTG | – | – | 12 | <1 | – |
| TT-(Galβ1–3GalNAcα)TVTPTPTG | – | – | 13 | <1 | – |
